Data taken from US20040146474A1, “Method for softening lines and relaxing the skin with adenosine and adenosine analogues” (L'OREAL, priority 2002, published 2004).

Tested on: equivalent dermis model constituted by a matrix of collagen seeded with normal human fibroblasts
Assay: Dermo-relaxant effect: spontaneous contraction of equivalent dermis (collagen matrix seeded with fibroblasts)
Type: cell-based
Details: adenosine 0.01%
Text: The principle of this test is to study the relaxing effect of adenosine on an equivalent dermis model constituted by a matrix of collagen seeded with normal human fibroblasts.
These conditions were intended to imitate in vitro the dermal contractile phenomena which occur during facial expressions. Under these conditions, cells spontaneously express tensile forces which induce retraction of the collagen gel. […] Measuring that surface area allows the relaxation effects of substances that have been brought into contact with the equivalent dermis to be determined.
Two series of 3 attached equivalent dermises containing normal human fibroblasts were prepared: a control series with no treatment, and a series treated with adenosine (0.01%). The experiment was carried out three times.
The skin equivalents were prepared as described by Asselineau et al, Exp. Cell. Res., 1985, 159, 536-539; Models in Dermatology, 1987, vol 3, pp 1-7, in the following proportions:
The treated equivalent dermis differed from the control equivalent dermis in that 0.01% of adenosine had been added.
The collagen used was type I collagen (commercial solution), but it was also possible to use type III or IV collagen. It was extracted from rat tails or calf skin by acid hydrolysis and stored in an acidic medium at +4° C.; it polymerizes naturally by heating to 37° C. and by reducing the acidity. The collagen had been dialyzed against successive baths of water+acetic acid.
The following protocol was employed: the following were introduced into a sterile tube: 1.76×MEM medium in the presence of additives (glutamine 1%, non essential amino acids 1%, sodium pyruvate 1%, fungizone 1% and penicillin/streptomycin 1%), foetal calf serum, 0.1 N sodium hydroxide NaOH. Fibroblasts isolated from human skin explants were then added in a concentration of 1.4×10^5 cells per ml of culture medium.
A 1/1000 vol/vol mixture of collagen in acetic acid was then slowly added by pouring it down the tube wall so that the appearance of a whitish cloud was observed.
The ensemble was then carefully mixed and distributed into the wells of a 12-well culture plate (Costar, reference 3512) in an amount of 0.5 ml of mixture per cm^2. The culture plate was placed in an incubator at 37° C. with 5% CO2.
Once formed after polymerizing the collagen, the equivalent dermises were left adhering to the culture support for 3 days then detached from the support so that contraction could commence. […]
To this end, a digital image was acquired for each treated or untreated equivalent dermis using a camera (CCD Camera—Iris Sony DXC—107P) and the surface area was then calculated for each image using an image analysis system (Zeiss Axiovision 3.0). […]

Nc1ncnc2c1ncn2[C@@H]1O[C@H](CO)[C@@H](O)[C@H]1O [Adenosine]
relaxing effect on equivalent dermis (conclusion in words): causes less contraction in an equivalent dermis
reduction of contraction percentage compared with the control (eight hours after detachment from support): 10.5%
reduction of contraction percentage compared with the control (four hours after detachment from support): 6.4%
reduction of contraction percentage compared with the control (twenty-four hours after detachment from support): 12.7%
